Laboratory results published in PubChem BioAssay (NCI).
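Abbreviation: GI50, concentration required for 50% inhibition of growth. TGI marks complete inhibition of growth.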

Columns and labels:
Assay in all cases: NCI-60 cell line screen, 384-well format
SNB-75 CNS = system: SNB-75 CNS
NCI-H460 NSCLC = system: NCI-H460 NSCLC
HS 578T breast = system: HS 578T breast
SK-MEL-5 melanoma = system: SK-MEL-5 melanoma
MOLT-4 leukemia = system: MOLT-4 leukemia
NCI-H322M lung = system: NCI-H322M lung
HL-60(TB) leukemia = system: HL-60(TB) leukemia
SF-268 CNS = system: SF-268 CNS
NCI-H226 lung = system: NCI-H226 lung
SK-MEL-28 melanoma = system: SK-MEL-28 melanoma
HCT-116 colon = system: HCT-116 colon
OVCAR-4 ovarian = system: OVCAR-4 ovarian
HOP-62 NSCLC = system: HOP-62 NSCLC
TK-10 renal = system: TK-10 renal
UACC-62 melanoma = system: UACC-62 melanoma
U251 glioblastoma = system: U251 glioblastoma
HT29 colon = system: HT29 colon
KM12 colon = system: KM12 colon
NCI/ADR-RES ovarian = system: NCI/ADR-RES ovarian
SNB-19 CNS = system: SNB-19 CNS
SF-295 CNS = system: SF-295 CNS
HCT-15 colon = system: HCT-15 colon
SW-620 colon = system: SW-620 colon
HCC-2998 colon = system: HCC-2998 colon
SF-539 CNS = system: SF-539 CNS
RPMI-8226 leukemia = system: RPMI-8226 leukemia
OVCAR-5 ovarian = system: OVCAR-5 ovarian
BT-549 breast = system: BT-549 breast
MCF7 breast = system: MCF7 breast
T-47D breast = system: T-47D breast
SK-OV-3 ovarian = system: SK-OV-3 ovarian
SN12C renal = system: SN12C renal
NCI-H522 lung = system: NCI-H522 lung
RXF 393 renal = system: RXF 393 renal
786-0 renal = system: 786-0 renal
EKVX NSCLC = system: EKVX NSCLC
DU-145 prostate = system: DU-145 prostate
SK-MEL-2 melanoma = system: SK-MEL-2 melanoma
A498 renal = system: A498 renal
MALME-3M melanoma = system: MALME-3M melanoma
UACC-257 melanoma = system: UACC-257 melanoma
NCI-H23 lung = system: NCI-H23 lung
CAKI-1 renal = system: CAKI-1 renal
COLO 205 colon = system: COLO 205 colon
UO-31 renal = system: UO-31 renal
IGROV1 ovarian = system: IGROV1 ovarian
LOX IMVI melanoma = system: LOX IMVI melanoma
MDA-MB-231 breast = system: MDA-MB-231 breast
ACHN renal = system: ACHN renal
HOP-92 NSCLC = system: HOP-92 NSCLC
A549 NSCLC = system: A549 NSCLC
OVCAR-3 ovarian = system: OVCAR-3 ovarian
MDA-MB-435 melanoma = system: MDA-MB-435 melanoma
K-562 leukemia = system: K-562 leukemia
M14 melanoma = system: M14 melanoma
PC-3 prostate = system: PC-3 prostate

`CO[C@@H](C(=O)N1Cc2[nH]nc(NC(=O)c3ccc(N4CCN(C)CC4)cc3)c2C1)c1ccccc1` showed a GI50 (SNB-75 CNS) of 0.769 µM, a TGI (SNB-75 CNS) of 2.09 µM and a GI50 (NCI-H460 NSCLC) of 0.0885 µM. The TGI (NCI-H460 NSCLC) was 1.26 µM, the GI50 (HS 578T breast) was 1.1 µM and the TGI (HS 578T breast) was 2.44 µM. For the same compound, the GI50 (SK-MEL-5 melanoma) was 11.2 µM, the TGI (SK-MEL-5 melanoma) was 24.6 µM and the GI50 (MOLT-4 leukemia) was 0.0189 µM. The TGI (MOLT-4 leukemia) was 0.0445 µM, the GI50 (NCI-H322M lung) was 3.17 µM and the TGI (NCI-H322M lung) was 16.7 µM. The GI50 (HL-60(TB) leukemia) was 0.0466 µM, the TGI (HL-60(TB) leukemia) was 1.51 µM and the GI50 (SF-268 CNS) was 1.02 µM. For the same compound, the TGI (SF-268 CNS) was 2.69 µM, the GI50 (NCI-H226 lung) was 0.623 µM and the TGI (NCI-H226 lung) was 4.91 µM. The GI50 (SK-MEL-28 melanoma) was 2.67 µM, the TGI (SK-MEL-28 melanoma) was 18.7 µM and the GI50 (HCT-116 colon) was 0.12 µM. It also gave a TGI (HCT-116 colon) of 25.2 µM, a GI50 (OVCAR-4 ovarian) of 0.566 µM and a TGI (OVCAR-4 ovarian) of 23.9 µM. It also gave a GI50 (HOP-62 NSCLC) of 0.676 µM, a TGI (HOP-62 NSCLC) of 10.5 µM and a GI50 (TK-10 renal) of 1.59 µM. The TGI (TK-10 renal) was 17.8 µM, the GI50 (UACC-62 melanoma) was 0.561 µM and the TGI (UACC-62 melanoma) was 20.1 µM. The GI50 (U251 glioblastoma) was 1.71 µM, the TGI (U251 glioblastoma) was 16.9 µM and the GI50 (HT29 colon) was 4.96 µM. The TGI (HT29 colon) was over 100 µM, the GI50 (KM12 colon) was 0.175 µM and the TGI (KM12 colon) was 10.9 µM. The GI50 (NCI/ADR-RES ovarian) was over 100 µM, the TGI (NCI/ADR-RES ovarian) was over 100 µM and the GI50 (SNB-19 CNS) was 2.29 µM. It also gave a TGI (SNB-19 CNS) of over 100 µM, a GI50 (SF-295 CNS) of 1.7 µM and a TGI (SF-295 CNS) of 54.4 µM. The GI50 (HCT-15 colon) was 14.7 µM, the TGI (HCT-15 colon) was over 100 µM and the GI50 (SW-620 colon) was 0.848 µM. For the same compound, the TGI (SW-620 colon) was 13 µM, the GI50 (HCC-2998 colon) was 12.7 µM and the TGI (HCC-2998 colon) was 30.3 µM. For the same compound, the GI50 (SF-539 CNS) was 0.237 µM, the TGI (SF-539 CNS) was 1.42 µM and the GI50 (RPMI-8226 leukemia) was 0.327 µM. For the same compound, the TGI (RPMI-8226 leukemia) was 1.46 µM, the GI50 (OVCAR-5 ovarian) was 1.7 µM and the TGI (OVCAR-5 ovarian) was 9.22 µM. The GI50 (BT-549 breast) was 0.27 µM, the TGI (BT-549 breast) was 1.47 µM and the GI50 (MCF7 breast) was 0.0371 µM. For the same compound, the TGI (MCF7 breast) was 13.7 µM, the GI50 (T-47D breast) was 9.18 µM and the TGI (T-47D breast) was 28 µM. It also gave a GI50 (SK-OV-3 ovarian) of 0.899 µM, a TGI (SK-OV-3 ovarian) of 12.5 µM and a GI50 (SN12C renal) of 0.737 µM. For the same compound, the TGI (SN12C renal) was 3.53 µM, the GI50 (NCI-H522 lung) was 0.0346 µM and the TGI (NCI-H522 lung) was 0.561 µM. The GI50 (RXF 393 renal) was 0.334 µM, the TGI (RXF 393 renal) was 2.04 µM and the GI50 ([…]-0 renal) was 2.53 µM. The TGI (786-0 renal) was 15.1 µM, the GI50 (EKVX NSCLC) was 1.05 µM and the TGI (EKVX NSCLC) was 15.8 µM. It also gave a GI50 (DU-145 prostate) of 0.451 µM, a TGI (DU-145 prostate) of 24.4 µM and a GI50 (SK-MEL-2 melanoma) of 15.5 µM. For the same compound, the TGI (SK-MEL-2 melanoma) was 29.1 µM, the GI50 (A498 renal) was 1.23 µM and the TGI (A498 renal) was 25.6 µM. For the same compound, the GI50 (MALME-3M melanoma) was 0.642 µM, the TGI (MALME-3M melanoma) was 15.2 µM and the GI50 (UACC-257 melanoma) was 13.1 µM. It also gave a TGI (UACC-257 melanoma) of 26.4 µM, a GI50 (NCI-H23 lung) of 0.822 µM and a TGI (NCI-H23 lung) of 12.9 µM. For the same compound, the GI50 (CAKI-1 renal) was 1.21 µM, the TGI (CAKI-1 renal) was 9.85 µM and the GI50 (COLO 205 colon) was 0.0244 µM. It also gave a TGI (COLO 205 colon) of 0.0639 µM, a GI50 (UO-31 renal) of 11 µM and a TGI (UO-31 renal) of 25.4 µM. For the same compound, the GI50 (IGROV1 ovarian) was 0.547 µM, the TGI (IGROV1 ovarian) was 2.79 µM and the GI50 (LOX IMVI melanoma) was 0.33 µM. For the same compound, the TGI (LOX IMVI melanoma) was 1.69 µM, the GI50 (MDA-MB-231 breast) was 2.36 µM and the TGI (MDA-MB-231 breast) was over 100 µM. It also gave a GI50 (ACHN renal) of 2.41 µM, a TGI (ACHN renal) of 18.6 µM and a TGI (HOP-92 NSCLC) of 2.8 µM. For the same compound, the GI50 (A549 NSCLC) was 0.442 µM, the TGI (A549 NSCLC) was 15.5 µM and the GI50 (OVCAR-3 ovarian) was 0.113 µM. It also gave a TGI (OVCAR-3 ovarian) of 2.64 µM, a GI50 (MDA-MB-435 melanoma) of 16.9 µM and a TGI (MDA-MB-435 melanoma) of 32.9 µM. The GI50 (K-562 leukemia) was 0.0326 µM, the TGI (K-562 leukemia) was 0.167 µM and the GI50 (M14 melanoma) was 9.89 µM. The TGI (M14 melanoma) was 26.3 µM, the GI50 (PC-3 prostate) was 1.63 µM and the TGI (PC-3 prostate) was 48.6 µM.
